The METLIN SMRT retention time set (Domingo-Almenara et al. 2019)

Experiment: gradient 5% acetonitrile 3 min, to 50% in 2 min, to 85% in 15 min, held 3 min, 100 µL/min
Conditions: column: Zorbax Extend-C18 2.1 x 50 mm; eluents: water / acetonitrile, 0.1% formic acid
Procedure, shortened: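 Using water and acetonitrile that each contained 0.1% formic acid, mixtures of ~100 pure standards were separated at 100 μL/min on a Zorbax Extend-C18 column (2.1 × 50 mm, 1.8 μm). The HPLC fed a quadrupole time-of-flight mass spectrometer working in positive and negative ionization mode, with dead and dwell volumes of 40 μL and 900 μL. Data were acquired over 3 months. Retention time was read from computationally picked adduct peaks after manual inspection of each.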

| Compound | RP-LC retention time [s] |
| --- | --- |
| CCOc1ccccc1N1CCN(S(=O)(=O)c2nn(C)cc2C(=O)NCCCOC(C)C)CC1 | 971 |
| Cc1ccc(Sc2nccnc2N2CCCC(C(=O)Nc3ccc(Br)cc3)C2)cc1 (stereo not given) | 1280 |
| Cc1ccc2ccc(C#N)cc2c1O | 892 |
| O=C(CCS(=O)(=O)c1ccccc1)N(Cc1ccccn1)Cc1ccco1 | 610 |
| CCOC(=O)c1c(S(=O)(=O)N2CCC(C(=O)NCc3ccc(F)cc3)CC2)c(C)n(CC)c1C | 835 |
| Cc1cccc(OCc2nc(C)c(C(=O)N3CCC(C(N)=O)CC3)s2)c1 | 962 |
| CC(C)CNC(=O)CCc1nc2ccccc2n(CC(=O)NCCCc2ccccc2)c1=O | 834 |
| N#Cc1ccc(-c2nc(-c3ccc(S(=O)(=O)N4CCC(C(=O)N5CCCC5)CC4)cc3)no2)cc1 | 947 |
| O=C(O)C1CN(CCCP(=O)(O)O)CCN1 (stereo not given) | 627 |
| CN1C(=O)c2cccnc2Sc2cc(C(=O)NCc3ccc(F)cc3)ccc21 | 765 |
| CCCn1c(CCNC(=O)c2ccc(C)c(C)c2)nc2cccnc21 | 705 |
| C/C=C1/CN2CC[C@]34C(=C(C=O)[C@H]1C[C@H]23)Nc1ccccc14 | 606 |
| CCC(C)NC(=O)c1cnn(-c2ccc(-c3nc(C(C)(C)C)no3)cn2)c1C (stereo not given) | 1050 |
| O=C(NCc1ccc(F)cc1F)c1sc2ncccc2c1-n1cccc1 | 1020 |
| COc1ccc(-c2noc(C3CCCN3C(=O)c3ccco3)n2)cc1 (stereo not given) | 809 |
| CCc1ccc(C(=O)N2CCC(c3nc4ccncc4n3C(C)C)C2)cc1 (stereo not given) | 572 |
| CCCCN1CCN(S(=O)(=O)c2ccc(-c3nnc(C4CCCC4)o3)o2)CC1 | 678 |
| CC(Cc1ccco1)NC(=O)C(C)n1c2ccccc2c2cnn(C)c(=O)c21 (stereo not given) | 603 |
| O=C(COc1ccccc1-c1nnc(-c2ccccc2)o1)Nc1ccc2c(c1)OCCO2 | 1160 |
| CN(Cc1nc2ccccc2n1Cc1ccccc1F)C(=O)c1ccco1 | 719 |
| O=C(CSCc1ccccc1)NCCNC(=O)c1ccc(NC(=O)C2CC2)cc1 | 683 |
| CC(C)n1nc(CNC(=O)C2CCC2)c2ccccc21 | 812 |
| COc1ccc(C(=O)NC2CCN(c3cc(-c4ccc(F)cc4)[nH]n3)C2)c(OC)c1 (stereo not given) | 740 |

| Compound | RP-LC retention time [s] |
| --- | --- |
| CCCCCc1ccc(/C=C/C(=O)Nc2ccccc2C(=O)O)cc1 | 1230 |
| O=C(Nc1nc(CCC(=O)N2CCn3c2nc2ccccc23)cs1)c1ccc(F)cc1 | 721 |
| FC(F)(F)c1ccc(Nc2nc3ccc(Oc4ccnc(-c5ncc(C(F)(F)F)[nH]5)c4)cc3[nH]2)cc1 | 844 |
| CCC(=O)N1CCc2cc(N3CC(C(=O)NCc4cccs4)CC3=O)ccc21 (stereo not given) | 695 |
| Cc1cccc(-n2c(=O)c3c(cc(C)n3C)n(CC(=O)Nc3cccc(Br)c3)c2=O)c1 | 962 |
| CC(C)(C)c1csc(NC(=O)c2ccc3c(c2)OCCO3)n1 | 976 |
| Cc1ccc(NC(=O)Cn2ncc3c(c2=O)N(CC2CC2)C(=O)CS3)cc1C | 812 |
| O=S(=O)(c1cc(-c2nnc(C3CC3)o2)co1)N1CCC(N2CCCCC2)CC1 | 597 |
| CCCCCC(=O)Nc1cc(-c2nc3ccccc3[nH]2)ccc1C | 712 |
| CCOc1ccccc1NC(=O)CN1CCN(c2nccn2-c2ccc(C)cc2)CC1 | 612 |
| Cc1nc2cc3c(cc2n1CC(=O)Nc1ccc(F)c(Cl)c1)OCCO3 | 690 |
| CCN(Cc1ccccc1)Cc1nc(-c2ccc(N3CCCC3)nc2)no1 | 640 |
| Cc1ccc(NC(=O)c2[nH]c3cc(C)sc3c2CN(C)C)c(Cl)c1 | 708 |
| COc1ccc(N2CC(c3nc(-c4ccc(Br)cc4)no3)CC2=O)cc1OC (stereo not given) | 977 |
| COc1cc([C@@H]2c3cc4c(cc3[C@H](O)[C@@H](CO)[C@@H]2C(=O)NCc2cc(F)cc(F)c2)OCO4)cc(OC)c1OC | 737 |
| CCNC(=O)c1nc2ccccc2n(CC)c1=O | 659 |
| COCc1c(C(=O)O)nnn1-c1ccc(OC)c(OC)c1 | 626 |
| O=C(NCCCN1CCCCC1)c1cc2n(n1)CCCN(Cc1ccc(Cl)cc1)C2=O | 582 |
| Cc1ccc(NC(=O)Cn2nc(N3CCCC(C)C3)c3ccccc3c2=O)c(C)c1 (stereo not given) | 1150 |
| COCCCNC(=O)c1ccc2c(c1)N(Cc1ccc(F)cc1)C(=O)CO2 | 711 |
| Cc1cccc(-c2nn3c(c2-c2ccnc4ccc(C(N)=O)cc24)CCC3)n1 | 612 |
| CCOc1ccc2nc(NC(=O)CCN3C(=O)C4C5C=CC(C5)C4C3=O)sc2c1 (stereo not given) | 834 |
| CNC(=O)CSc1nc(-c2ccccc2)c(NC(=O)COc2ccccc2F)s1 | 806 |

| Compound | RP-LC retention time [s] |
| --- | --- |
| Cc1noc(-c2nc(-c3cccc(F)c3)no2)n1 | 990 |
| CCOC(=O)N1CCN(S(=O)(=O)c2cn(C)c(=O)n(C)c2=O)CC1 | 621 |
| CC(C)n1cc(S(=O)(=O)NCc2cccc(Cl)c2)c2cccnc21 | 928 |
| CCOc1ccccc1NC(=O)N(C)CCc1noc(COc2ccccc2)n1 | 977 |
| Cn1cnc(S(=O)(=O)N2CCC(C(=O)NCCc3ccccc3)CC2)c1 | 663 |
| Cn1nc(C(=O)N2CCCC2)c2c1CCN(C(=O)CCC(=O)NC1CCCCC1)C2 | 664 |
| CNC(=O)c1ccc(-n2nc(Sc3ccc(OC)cc3)ccc2=O)cc1 | 702 |
| COCCc1noc(-c2cnc3nc(C)ccc3c2Nc2ccc(OC)cc2)n1 | 681 |
| O=c1c(=O)n(-c2cccc(Cl)c2)ccn1Cc1nc(-c2ccc(F)cc2)no1 | 881 |
| COCCCNC(=O)C1CCN(c2cncnc2N(C)C)CC1 | 568 |
| O=C(CN1C(=O)CCCc2cc(S(=O)(=O)N3CCCCCC3)ccc21)Nc1cccc(F)c1 | 988 |
| CCN1CCN(C2=NCCN2C(=O)c2ccccc2Br)CC1 | 898 |
| CC(C)CC(=O)Nc1ccc(-n2cnc(C(=O)NC3CCCC3)c2)nc1 | 772 |
| COC(=O)c1ccc(NC(=O)Cc2csc(Nc3ccc(F)cc3)n2)cc1 | 838 |
| CCOC(=O)c1cccc(Nc2c(-c3ccc4c(c3)OCO4)nc3cnccn23)c1 | 834 |
| CCCN1CCN(c2ccc(NC(=O)C(C)(C)C)c(C(=O)O)c2)CC1 | 611 |
| Cc1ccc(-c2nnc(C)c(NCc3cccs3)n2)cc1 | 700 |
| CS(=O)(=O)Nc1ccc(C2(C(=O)NCc3ccco3)CCCCC2)cc1 | 806 |
| COc1cc(=O)n2c(c1C(=O)NCCC1=CCCCC1)CCCC2 | 723 |
| CCC(C)NC(=O)N1CC(Oc2ccc(-c3nc(C)no3)cc2)C1 (stereo not given) | 873 |
| COc1ccc(-c2csc(Nc3cccnc3)n2)cc1 | 656 |
| CCC(=O)NCc1nc2c(n1C)CN(C(=O)c1cccc(Br)c1)CC2 | 591 |
| CC1CCN(CCNC(=O)c2nnc(-c3ccc(S(=O)(=O)N4CCCC4)cc3)o2)CC1 | 634 |

| Compound | RP-LC retention time [s] |
| --- | --- |
| COc1cc(NC(=O)N2CCN(c3ccc(=O)n(-c4ccc(C)c(C)c4)n3)CC2)cc(OC)c1OC | 775 |
| COc1ccc(CNC(=O)N(c2ccccc2)c2ccccc2)c(OC)c1 | 925 |
| O=C1C2N=NN(c3ccc(F)cc3)C2C(=O)N1c1ccccc1 (stereo not given) | 914 |
| COC1C(=O)N(c2cccc(F)c2)C12CCN(S(=O)(=O)Cc1ccccc1)CC2 (stereo not given) | 1020 |
| COc1cccc(CC(=O)N2CCC(C(=O)NCCc3csc(-c4cccs4)n3)CC2)c1 | 770 |
| CCCCc1ccc(N2C(=O)CC(c3ccc(OC)c(OC)c3)CC2=O)cc1 | 1040 |
| O=C(Cn1cnc2c(sc3nc(-c4ccccc4)ccc32)c1=O)NCc1ccccc1 | 953 |
| COc1ccc(C(=O)N2CCN(c3c(C)n(C)c(=O)n(C)c3=O)CC2)cc1 | 697 |
| CCN(CCNC(=O)CCc1cc2ccc(C)cc2[nH]c1=O)Cc1ccccc1 | 639 |
| Nc1sc(SCC(=O)NCc2ccc(F)cc2)nc1-c1ccccc1 | 796 |
| COc1ccc(-c2nnc(SCc3cc(=O)n4c(C)csc4n3)o2)cc1 | 831 |
| CCOc1cc2c(cc1OCC)C1C(C(=O)NCCN3CCOCC3)c3ccccc3C(=O)N1CC2 (stereo not given) | 615 |
| Cn1nccc1C(=O)N1CCCCCCNC(=O)[C@@H]2CCCC[C@@H]21 | 705 |
| O=C(Cn1cccc1-c1nnc(C2CCC2)o1)NCc1ccc2c(c1)OCO2 | 836 |
| CCCN1C(=O)CN(S(=O)(=O)c2ccc(C)cc2)CC1(C)C(=O)NCc1ccccc1 (stereo not given) | 864 |
| COc1ccccc1-n1ccnc(NC(=O)Nc2ccc(F)cc2F)c1=O | 938 |
| CCC(=O)NCc1nc2c(n1C)CN(S(=O)(=O)c1c(C)c(C)cc(C)c1C)CC2 | 556 |
| O=C1[C@H]2CN(Cc3ccccc3F)C[C@H]2C(=O)N1CCc1ccccc1 | 781 |
| CC1(C)C(=O)N(CC(=O)Nc2ccc3c(c2)OCO3)c2ccccc21 | 823 |
| O=C1CCc2cc(NC(=O)c3n[nH]c4ccccc34)ccc2N1 | 633 |
| CCOC(=O)C1CCCN(CC(O)COc2ccccc2Br)C1 (stereo not given) | 590 |
